Results on one compound are retold here after patent publication US20220213030A1, “AMINOGUANIDINE HYDRAZONES AS RETROMER STABILIZERS USEFUL FOR TREATING NEUROLOGICAL DISEASES” (OSPEDALE SAN RAFFAELE SRL, priority 2019, published 2022).

The test system of one test is Sortilin. The test is described as follows: Sortilin MFI in MNs of G93A mice. The conditions noted are these: 10 mg/kg, day 100. The format is in vivo, mouse. An excerpt:
We next assayed retromer proteins labelling sections of mice sacrificed at day 100 for VPS35 and NeuN. […] Similarly, we observed that VPS26 levels were increased in G93A mice receiving compound 2a (FIG. 11B). We further corroborated our experimental finding observing that compound 2a increased retromer functionality. The cation-independent mannose 6-phosphate receptor (CI-MPR) is a cargo (Arighi et al., 2004) of the retromer complex that is unstable in VPS26 knockout cells (Seaman 2004). We observed a substantial reduction of CI-MPR MFI levels in MNs of vehicle-treated G93A mice when compared with WT litters (FIG. 11C). […]
Fluorescence intensity levels of VPS35, VPS26, Sortilin, CTSD and Ubiquitin were calculated using NHI-Image J software (US National Institutes of Health) according to the following protocol: stacks of confocal images were used to generate the maximal projections (Las-X) and then post-processed by NHI-Image J to crop single NeuN^+ MNs from the ventral horn of the spinal cord. We next performed background (calculated on adjacent slices only receiving secondary antibodies) subtraction for each channel, before applying the NHI-Image J mean filter (with radius 2.0 pixels) to calculate mean NeuN fluorescence levels in individual MN. […] On this selected ROI, we calculated mean fluoresce levels (MFI) of each protein.

The test system of test [1] is lysosomes in Neuro2a cells receiving G93A plasmids. The test is described as follows: Lyso-tracker analysis of lysosomes in G93A-transfected Neuro2a. Type of test: cell-based, mouse. The conditions noted are these: 10 μM, 24 hours of starvation. Here is the method: We next determined whether a reduction of VPS35 levels in Neuro2a cells could affect lysosomal homeostasis, mimicking what we and others observed in the ALS mouse model (Cheng 2018). We transfected Neuro2a cells with plasmids encoding the Sh56 RNAi to downregulate VPS35. After 24 hours of starvation, we analyzed the lysosomes using the Lyso-tracker. We observed an enlarged and abnormal distribution of lysosomes in cells with VPS35 interference by Sh56 (FIG. 15A-C). […] We asked whether G93A plasmids would also result in similar lysosomal alterations. We transfected Neuro2a cells with plasmids encoding G93A, with or without compound 2a (10 μM). After 24 hours of starvation, we monitored the lysosomes in such cells with the Lyso-tracker.

The test system of the next test is CI-MPR. The test is described as follows: CI-MPR MFI in MNs of G93A mice. The format is in vivo, mouse. The conditions noted are these: 10 mg/kg, day 100. From the text: We next assayed retromer proteins labelling sections of mice sacrificed at day 100 for VPS35 and NeuN. […] Similarly, we observed that VPS26 levels were increased in G93A mice receiving compound 2a (FIG. 11B). We further corroborated our experimental finding observing that compound 2a increased retromer functionality. The cation-independent mannose 6-phosphate receptor (CI-MPR) is a cargo (Arighi et al., 2004) of the retromer complex that is unstable in VPS26 knockout cells (Seaman 2004). We observed a substantial reduction of CI-MPR MFI levels in MNs of vehicle-treated G93A mice when compared with WT litters (FIG. 11C). […] Sortilin encodes for a receptor belonging to the Vps10 family, and it has been involved in Frontotemporal Dementia (FTD), (Lane 2012).
Sections from mice (frozen cryo sections) or glass covers containing cells were washed three times in PBS 1× (Lonza, 5 min each), and incubated in the following blocking mix: PBS 1×/FBS 10% (Invitrogen), BSA 1 mg/mL (Sigma), TritonX100 0.1% (Sigma), for 1 h at room temperature. Antibodies were diluted in blocking mix and incubated at +4° C. overnight according manufacturer's instructions. […]

A further test addresses VPS35 (Mus musculus, UniProt Q9EQH3+Q9QZ88). The test is described as follows: VPS35 levels in spinal cord extracts of C57BL6J mice by western blot. The format is in vivo. The conditions noted are these: 10 mg/kg daily intraperitoneal for 7 days. The arrangement: Lumbar spinal cords were dissected from saline perfused mice and rapidly homogenized; from tissue; host or cells: lumbar spinal cord of mice. On the procedure: We next asked whether the compound 2a can cross the blood brain barrier (BBB) of the brain. We run a pharmacokinetic assay on C57BL6J mice that received daily intraperitoneal injections of compound 2a (10 mg/Kg/day). Mice were sacrificed after 1, 7, 15 and 30 days saline perfused to avoid the CNS contamination of compounds contained in blood circulation and brains used for the determination of compound 2a levels by mass spectrometry. […] We next investigated in vivo if the retromer stabilization occurs in response to Compound 2a treatment. We intraperitoneally injected R55 and Compound 2a in adult C57BL6J mice as above described. After one week, mice were sacrificed, proteins extracts were assayed by western blot.
Lumbar spinal cords were dissected from saline perfused mice and rapidly homogenized in the following lysis buffer: Tris-HCl 10 mM pH 8, EDTA pH 8 1 mM, NaCl 100 mM, NP40 1% and protease inhibitor cocktail (Sigma). Protein extracts were obtained using a tight-fitting glass Potter tissue grinder (1 ml; Wheaton) and then sonicated at a frequency of 20 kHz (10 times-1s). […] Protein concentrations were measured by BCA protein assay kit (Thermofisher) according to the manufacturer's recommendations. […] Quantifications were done using the Image Lab 6.0.1 software (Bio-Rad).

With `N=C(N)NN=Cc1cccc(C=NNC(=N)N)c1` [Compound 2a, 1,3-Bis-amino guanidine phenyl hydrazone], the “Sortilin MFI levels” value with Sortilin is “significantly increased Sortilin levels”. Also, the “enlarged lysosomes (Lyso-tracker-covered areas)” value in test [1] is recorded as “significantly reverted this phenotype”. Also, in the test with CI-MPR, the “CI-MPR MFI levels” value is reported as “significantly increased”. The “VPS35 levels in SC extracts (ratio versus vehicle-treated mice)” value on VPS35 was “≈ 1.7”.
